These results are taken from US10072001B2, “Tank-binding kinase inhibitor compounds” (Gilead Sciences, Inc., priority 2014, dated 2018).

One assay has as its target IKKε (Homo sapiens (Human), UniProt Q14164). Nature of the assay: TR-FRET kinase assay, IKKε. The assay is classed as biochemical. The settings on record: full length recombinant IKKε 0.3 nM, 2x Km ATP, 1 μM peptide, 240 min at 25° C.; geometric mean of minimum four determinations. The text has this:
Biological Assay for TBK1 and IKKs:
A general note: In TR-FRET formats the signal depends on donor and acceptor labels being close together.

Another assay has as its target TBK1 (Homo sapiens (Human), UniProt Q9UHD2). In words: TR-FRET kinase assay, TBK1. The settings on record: read-out: TBK1-IC50; full length recombinant TBK1 2.5 nM, 2x Km ATP, 1 μM peptide, 240 min at 25° C.; geometric mean of minimum four determinations.

Some results are limits rather than exact numbers.

Chain of IKKε (Q14164 whole entry): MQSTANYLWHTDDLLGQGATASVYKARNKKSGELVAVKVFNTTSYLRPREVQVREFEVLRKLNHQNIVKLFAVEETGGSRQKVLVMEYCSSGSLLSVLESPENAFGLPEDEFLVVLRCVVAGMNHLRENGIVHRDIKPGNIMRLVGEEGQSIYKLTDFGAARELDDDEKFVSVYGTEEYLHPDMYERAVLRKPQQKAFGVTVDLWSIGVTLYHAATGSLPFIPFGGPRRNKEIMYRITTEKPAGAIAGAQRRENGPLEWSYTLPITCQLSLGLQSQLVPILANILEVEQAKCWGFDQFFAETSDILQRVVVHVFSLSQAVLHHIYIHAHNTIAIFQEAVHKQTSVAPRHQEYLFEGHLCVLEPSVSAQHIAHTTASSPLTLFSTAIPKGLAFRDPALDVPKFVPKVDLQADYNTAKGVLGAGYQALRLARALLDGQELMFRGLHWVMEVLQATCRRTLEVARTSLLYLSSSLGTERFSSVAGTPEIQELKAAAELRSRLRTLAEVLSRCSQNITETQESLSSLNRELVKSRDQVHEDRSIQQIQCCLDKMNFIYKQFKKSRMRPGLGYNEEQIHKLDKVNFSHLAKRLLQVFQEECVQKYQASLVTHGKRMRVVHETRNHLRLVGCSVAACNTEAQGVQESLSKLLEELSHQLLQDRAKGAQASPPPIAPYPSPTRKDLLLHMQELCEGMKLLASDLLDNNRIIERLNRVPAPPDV
Chain of TBK1 (Q9UHD2 whole entry): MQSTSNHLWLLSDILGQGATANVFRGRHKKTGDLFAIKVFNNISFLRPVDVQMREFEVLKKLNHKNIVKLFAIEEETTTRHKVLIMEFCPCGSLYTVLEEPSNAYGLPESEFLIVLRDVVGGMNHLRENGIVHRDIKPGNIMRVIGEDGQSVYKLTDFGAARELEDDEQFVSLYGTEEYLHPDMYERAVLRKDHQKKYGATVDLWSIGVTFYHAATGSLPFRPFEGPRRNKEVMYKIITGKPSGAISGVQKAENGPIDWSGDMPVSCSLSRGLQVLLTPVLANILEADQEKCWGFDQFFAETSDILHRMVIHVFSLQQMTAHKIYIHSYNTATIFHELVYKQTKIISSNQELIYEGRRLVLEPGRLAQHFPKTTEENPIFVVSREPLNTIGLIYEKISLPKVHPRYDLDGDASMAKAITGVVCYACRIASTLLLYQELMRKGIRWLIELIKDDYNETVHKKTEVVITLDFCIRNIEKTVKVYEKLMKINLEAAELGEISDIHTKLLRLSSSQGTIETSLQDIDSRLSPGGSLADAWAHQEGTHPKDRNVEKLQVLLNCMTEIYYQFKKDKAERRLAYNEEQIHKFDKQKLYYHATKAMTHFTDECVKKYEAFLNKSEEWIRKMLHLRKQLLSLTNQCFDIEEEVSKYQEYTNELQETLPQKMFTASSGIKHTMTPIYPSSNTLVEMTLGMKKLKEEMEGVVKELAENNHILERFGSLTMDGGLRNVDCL

As for `N#Cc1cc(-c2ccnc3[nH]c(-c4ccc(N5CCN(C6COC6)CC5)cc4)cc23)ncc1OC1CCN(C(=O)CO)CC1(F)F` (stereo not drawn) [Example 176, 5-((3,3-difluoro-1-(2-hydroxyacetyl)piperidin-4-yl)oxy)-2-(2-(4-(4-(oxetan-3-yl)piperazin-1-yl)phenyl)-1H-pyrrolo[2,3-b]pyridin-4-yl)isonicotinonitrile], the half-inhibitory concentration (IC50) (usually the concentration that inhibits the measured activity by half) stood at 1.44 nM at IKKε and 1.81 nM at TBK1.

Consider `N#Cc1cc(-c2ccnc3[nH]c(-c4cccc(N5CCOCC5)c4)cc23)ccc1OC1CCOCC1` [Example 78, 5-(2-(3-morpholinophenyl)-1H-pyrrolo[2,3-b]pyridin-4-yl)-2-((tetrahydro-2H-pyran-4-yl)oxy)benzonitrile], for which the half-maximal inhibitory concentration (IC50) was 40.1 nM at IKKε and 25.5 nM on TBK1.

On to `N#Cc1cc(-c2ccnc3[nH]c(-c4ccc(N5CCOCC5)cc4)cc23)ccc1N1CC(O)C1` [Example 52, 2-(3-hydroxyazetidin-1-yl)-5-(2-(4-morpholinophenyl)-1H-pyrrolo[2,3-b]pyridin-4-yl)benzonitrile], for which the half-inhibitory concentration (IC50) stood at 3.33 nM at IKKε and 15.6 nM on TBK1.

Turning to `N#Cc1cc(-c2ccnc3[nH]c(-c4ccc(N5CCOCC5)cc4)cc23)ccc1O[C@@H]1CCNC1` [Example 14, (R)-5-(2-(4-morpholinophenyl)-1H-pyrrolo[2,3-b]pyridin-4-yl)-2-(pyrrolidin-3-yloxy)benzonitrile], the IC50 at IKKε came to 20.8 nM; on TBK1, 6.86 nM.

Turning to `CC(C)(O)c1ccc(-c2cc3c(-c4ccc(OC5CCOCC5)c(C#N)c4)ncnc3[nH]2)cc1` [Example 109, 5-(6-(4-(2-hydroxypropan-2-yl)phenyl)-7H-pyrrolo[2,3-d]pyrimidin-4-yl)-2-((tetrahydro-2H-pyran-4-yl)oxy)benzonitrile], the IC50 was 4.99 nM on IKKε and 0.821 nM on TBK1.

Regarding `N#Cc1cc(-c2ccnc3[nH]c(-c4ccc(N5CCOCC5)cc4)cc23)ccc1OCC1CC1` [Example 80, 2-(cyclopropylmethoxy)-5-(2-(4-morpholinophenyl)-1H-pyrrolo[2,3-b]pyridin-4-yl)benzonitrile], the results for the 50% inhibitory concentration (IC50) at IKKε and on TBK1 were greater than 1000 nM and 16.8 nM, respectively.

As to `N#Cc1cc(-c2ccnc3[nH]c(C4=CCN(C5COC5)C4)cc23)ccc1OC1CCOCC1` [Example 178, 5-(2-(1-(oxetan-3-yl)-2,5-dihydro-1H-pyrrol-3-yl)-1H-pyrrolo[2,3-b]pyridin-4-yl)-2-((tetrahydro-2H-pyran-4-yl)oxy)benzonitrile], the values for the IC50 on IKKε and on TBK1 were 18.3 nM and 7.82 nM, respectively.

For `CC(O)C(=O)N1CC[C@@H](Oc2ccc(-c3ccnc4[nH]c(-c5ccc(N6CCOCC6)cc5)cc34)cc2C#N)C1` (stereo partly drawn) [Example 27, 2-(((3R)-1-(2-hydroxypropanoyl)pyrrolidin-3-yl)oxy)-5-(2-(4-morpholinophenyl)-1H-pyrrolo[2,3-b]pyridin-4-yl)benzonitrile], the IC50 on IKKε came out at 13.4 nM; on TBK1 it was 6.54 nM.

`N#Cc1cc(-c2ccnc3[nH]c(-c4ccc(N5CCOCC5)cc4)cc23)ccc1N1CCCC1=O` [Example 13, 5-(2-(4-morpholinophenyl)-1H-pyrrolo[2,3-b]pyridin-4-yl)-2-(2-oxopyrrolidin-1-yl)benzonitrile]: the IC50 on IKKε is 182 nM; on TBK1, 24.9 nM.

Turning to `N#Cc1cc(-c2ccnc3[nH]c(-c4cccc(CN5CCOCC5)c4)cc23)ccc1OC1CCOCC1` [Example 39, 5-(2-(3-(morpholinomethyl)phenyl)-1H-pyrrolo[2,3-b]pyridin-4-yl)-2-((tetrahydro-2H-pyran-4-yl)oxy)benzonitrile], the IC50 at IKKε came out at 10.7 nM; at TBK1, 10.1 nM.

For the compound `N#Cc1cc(-c2ccnc3[nH]c(-c4ccc5c(c4)OCC(=O)N5)cc23)ccc1OC1CCOCC1` [Example 75, 5-(2-(3-oxo-3,4-dihydro-2H-benzo[b][1,4]oxazin-7-yl)-1H-pyrrolo[2,3-b]pyridin-4-yl)-2-((tetrahydro-2H-pyran-4-yl)oxy)benzonitrile], the results for the 50% inhibitory concentration (IC50) at IKKε and on TBK1 were 10.5 nM and 6.28 nM, respectively.

For the compound `N#Cc1cc(-c2ncnc3[nH]c(-c4ccc(N5CCOCC5)cc4)nc23)ccc1OC1CCOCC1` [Example 201, 5-(8-(4-morpholinophenyl)-9H-purin-6-yl)-2-((tetrahydro-2H-pyran-4-yl)oxy)benzonitrile], the concentration for half-maximal inhibition (IC50) on IKKε came out at 19.7 nM; on TBK1, 3 nM.

Take `N#Cc1cc(-c2ncnc3[nH]c(-c4ccc(N5CCOCC5)cc4)cc23)ccc1CN1CCCC1=O` [Example 115, 5-(6-(4-morpholinophenyl)-7H-pyrrolo[2,3-d]pyrimidin-4-yl)-2-((2-oxopyrrolidin-1-yl)methyl)benzonitrile]: the half-inhibitory concentration (IC50) on IKKε worked out at 1000 nM; at TBK1, 45.7 nM.

Consider `O=C1NCc2cc(-c3cc4c(-c5ccc6c(c5)CNC6=O)ncnc4[nH]3)ccc21` [Example 224, 5,5′-(7H-pyrrolo[2,3-d]pyrimidine-4,6-diyl)bis(isoindolin-1-one)], for which the IC50 at IKKε and on TBK1 was 1000 nM throughout.

Turning to `CN1CCN(c2ccc(-c3nc4c(-c5ccc(OC6CCOCC6)c(C#N)c5)ccnc4[nH]3)cc2)CC1` [Example 306, 5-(2-(4-(4-methylpiperazin-1-yl)phenyl)-3H-imidazo[4,5-b]pyridin-7-yl)-2-((tetrahydro-2H-pyran-4-yl)oxy)benzonitrile], the half-inhibitory concentration (IC50) stood at 1.21 nM at IKKε and 1.85 nM at TBK1.

Turning to `N#Cc1cc(-c2ncnc3[nH]c(-c4ccc(Cl)cc4)cc23)ccc1OC1CCN(C(=O)CO)CC1` [Example 127, 5-(6-(4-chlorophenyl)-7H-pyrrolo[2,3-d]pyrimidin-4-yl)-2-((1-(2-hydroxyacetyl)piperidin-4-yl)oxy)benzonitrile], the IC50 came out at 9.58 nM at IKKε and 4.64 nM at TBK1.

For the compound `N#Cc1cc(-c2ncnc3[nH]c(-c4ccc(N5CCN(C6COC6)CC5)cc4)cc23)ccc1OC1CCN(C(=O)CO)CC1` [Example 157, 2-((1-(2-hydroxyacetyl)piperidin-4-yl)oxy)-5-(6-(4-(4-(oxetan-3-yl)piperazin-1-yl)phenyl)-7H-pyrrolo[2,3-d]pyrimidin-4-yl)benzonitrile], the IC50 at IKKε is 1.43 nM; at TBK1 it was 0.849 nM.

For the compound `COc1cc(-c2cc3c(-c4ccc(OC5CCOCC5)c(C#N)c4)c(F)cnc3[nH]2)ccc1N1CCOCC1` [Example 172, 5-(5-fluoro-2-(3-methoxy-4-morpholinophenyl)-1H-pyrrolo[2,3-b]pyridin-4-yl)-2-((tetrahydro-2H-pyran-4-yl)oxy)benzonitrile], the figures for the IC50 at IKKε and on TBK1 were 260 nM and 30.2 nM, respectively.

Consider `N#Cc1cc(-c2ccnc3[nH]c(-c4ccc(N5CCOCC5)cc4)cc23)ccc1O[C@H]1CCNC1` [Example 22, (S)-5-(2-(4-morpholinophenyl)-1H-pyrrolo[2,3-b]pyridin-4-yl)-2-(pyrrolidin-3-yloxy)benzonitrile], for which the IC50 on IKKε stood at 132 nM; at TBK1 it was 39.6 nM.

In the case of `CNC(=O)c1cccc(-c2cc3c(-c4ccc(OC5CCOCC5)c(C#N)c4)ccnc3[nH]2)c1` [Example 40, 3-(4-(3-cyano-4-((tetrahydro-2H-pyran-4-yl)oxy)phenyl)-1H-pyrrolo[2,3-b]pyridin-2-yl)-N-methylbenzamide], the half-inhibitory concentration (IC50) came to 11.1 nM on IKKε and 7.98 nM at TBK1.

As for `N#Cc1cc(-c2ncnc3[nH]c(-c4cccc(N5CCOCC5)c4)nc23)ccc1OC1CCOCC1` [Example 211, 5-(8-(3-morpholinophenyl)-9H-purin-6-yl)-2-((tetrahydro-2H-pyran-4-yl)oxy)benzonitrile], the concentration for half-maximal inhibition (IC50) is 25.3 nM on IKKε and 9.57 nM at TBK1.

As to `CN1CCN(C(=O)c2ccc(-c3cc4c(-c5ccc(OC6CCN(C(=O)CO)CC6)c(C#N)c5)ncnc4[nH]3)cc2)CC1` [Example 161, 2-((1-(2-Hydroxyacetyl)piperidin-4-yl)oxy)-5-(6-(4-(4-methylpiperazine-1-carbonyl)phenyl)-7H-pyrrolo[2,3-d]pyrimidin-4-yl)benzonitrile], the 50% inhibitory concentration (IC50) came out at 1.12 nM at IKKε and 1.56 nM on TBK1.

In the case of `CC(C)(O)c1ccc(-c2cc3c(-c4ccc(O[C@@H]5CCN(C(=O)CO)C5)c(C#N)c4)ccnc3[nH]2)cc1` [Example 149, (R)-2-((1-(2-hydroxyacetyl)pyrrolidin-3-yl)oxy)-5-(2-(4-(2-hydroxypropan-2-yl)phenyl)-1H-pyrrolo[2,3-b]pyridin-4-yl)benzonitrile], the half-maximal inhibitory concentration (IC50) was 2.27 nM at IKKε and 1.54 nM on TBK1.

In the case of `CNC(=O)c1ccc(-c2cc3c(-c4ccc(OC5CCOCC5)c(C#N)c4)ccnc3[nH]2)cc1` [Example 41, 4-(4-(3-cyano-4-((tetrahydro-2H-pyran-4-yl)oxy)phenyl)-1H-pyrrolo[2,3-b]pyridin-2-yl)-N-methylbenzamide], the results for the IC50 at IKKε and on TBK1 were 5.59 nM and 3.08 nM, respectively.

For `N#Cc1nc(-c2ccnc3[nH]c(-c4ccc(N5CCOCC5)cc4)nc23)ccc1OC1CCOCC1` [Example 304, 6-(2-(4-morpholinophenyl)-3H-imidazo[4,5-b]pyridin-7-yl)-3-((tetrahydro-2H-pyran-4-yl)oxy)picolinonitrile], the results for the half-maximal inhibitory concentration (IC50) at IKKε and at TBK1 were 18.6 nM and 9.25 nM, respectively.

With `Cn1nccc1-c1cc2c(-c3ccc(OC4CCOCC4)c(C#N)c3)ccnc2[nH]1` [Example 181, 5-(2-(1-methyl-1H-pyrazol-5-yl)-1H-pyrrolo[2,3-b]pyridin-4-yl)-2-((tetrahydro-2H-pyran-4-yl)oxy)benzonitrile], the concentration for half-maximal inhibition (IC50) at IKKε amounted to 34.8 nM; on TBK1, 23.9 nM.

As to `N#Cc1cc(-c2ccnc3[nH]c(C(=O)N4CCCC4)cc23)ccc1OC1CCOCC1` [Example 117, 5-(2-(pyrrolidine-1-carbonyl)-1H-pyrrolo[2,3-b]pyridin-4-yl)-2-((tetrahydro-2H-pyran-4-yl)oxy)benzonitrile], the half-inhibitory concentration (IC50) at IKKε was 262 nM; at TBK1, 383 nM.
